In patent US20210395674A1, “COMPOSITION FOR INCREASING BIOLOGICAL ACTIVITY OF STEM CELLS USING MIXTURE 4F” (YOUTH BIO GLOBAL CO., LTD., priority 2019, published 2021):

Tested on: umbilical cord blood monocytes (MNCs) / EPC colonies
Experiment: Colony formation, proliferative ability and cell cycle in xeno-free culture
Type: cell-based, human
Method: FIG. […] Specifically, the isolation and culture of […] (EPC) is performed by density difference centrifugation using ficoll after receiving umbilical cord blood (IRB approval number 05-2017-053, 50 cc or more) of mothers who visited the Department of Obstetrics and Gynecology, Pusan National University, Yangsan to obtain monocytes (MNCs). After red blood cell lysis, the cells were seeded (7>10^6 cells/well) in a 6-well plate coated with fibronectin (1 μg/cm^2), and were cultured for 5 days in an atmosphere of 5% CO2 at 37° C. under conditions of each medium ([…] endothelial cell differentiation (EGM2 media)). […] After culture, the medium was exchanged every day, and the EPC colony attachment was identified and subcultured when 70% or more thereof is under a confluent state. According to the type of culture medium, the cells obtained by culturing with the conventional vascular endothelial cell differentiation medium […]
[…] Example 11 were separated into single cells, and proliferative ability, cell cycle change, and colony formation ability were analyzed in the same manner as in Example 6. For the control group of this example, cells cultured by the conventional culture method (L-EPC) and cells cultured in a medium containing each single component in a xeno-free medium [a group treated with fucoidan (Fu, 0.1 μg/ml), a group treated with a tauroursodeoxycholic acid (TD, 25 μM), a group treated with oleuropein (OLP, 0.5 μM), and a group treated with a vascular endothelial growth factor (VEGF, 100 ng/ml)]were used.

vascular endothelial growth factor
colony formation ability (EPC colonies) (xeno-free medium): EPC colonies were identified | division time of the cells (xeno-free medium): prolonged | expression of VE-cadherin (xeno-free medium with single component): low
